Columns and labels:
blood lymphocytes [1] = assay: Blood Lymphocyte Reduction (BLR) assay in rodent; type: in vivo, Lewis rats; details: 24 hr post-dose; for Percent reduction vs. vehicle control: Table C study
[2] = Pulmonary Toxicity Assay (bronchoalveolar lavage protein); type: in vivo, rats; details: 24 hr post-dose
Experimental: The analysis of protein levels in bronchoalveolar lavage (BAL) fluid obtained from an animal were used to gauge pulmonary side effects. Increased levels of protein in BAL fluid were indicative of undesired edematous pulmonary effects, such as pulmonary edema.
Example 3 was administered orally to rats at doses of 0.3, 1.0, 10, 30 mg/kg and 2-amino-2-[2-(4-octylphenyl)ethyl]-1,3-propanediol, hydrochloride (CAS: 162359-56-0) was administered at 3.0 mg/kg as a solution in the vehicle. At 24 hours post dose, the rats were then euthanized by barbiturate overdose. The trachea was exposed by incision of the overlying skin and then cannulated. The lungs were lavaged with 4 mL of saline. The recovered lavage fluid was assayed for total protein content. The concentration of the BAL protein in the recovered BAL fluid was determined on an Advia 1800 Chemistry Analyzer (Siemens Healthcare Diagnostics). The results represent the average results of all animals within each treatment group (n=2-4).

blood lymphocytes [3] = assay: Blood Lymphocyte Reduction (BLR) assay in rodent; type: in vivo, Lewis rats; details: 24 hr post-dose, Table B study; for Percent reduction vs. control: hydrochloride
Experimental: Blood Lymphocyte Reduction (BLR) assay in rodent:
Lewis rats were dosed orally with vehicle alone (polyethylene glycol 300, “PEG300”) or with the comparative compound 2-amino-2-[2-(4-octylphenyl)ethyl]-1,3-propanediol, hydrochloride (“FTY” CAS: […]) as a solution in the vehicle at doses of 0.1 mg/kg, 0.5 mg/kg and 3.0 mg/kg. The results are provided in Table Band the level of lymphocyte reduction at 24 hours post-dose was maximal at 3.0 mg/kg. The percent reduction in lymphocytes is dose-related but the relationship is not linear, with non-proportional increases in dose being required to elicit sequentially greater reductions in lymphocyte counts.

SMILES	Percent reduction vs. vehicle control (blood lymphocytes [1]; 0.3 mg/kg) [%]	Percent reduction vs. vehicle control (blood lymphocytes [1]; 1 mg/kg) [%]	level of lymphocyte reduction (in words) (blood lymphocytes [1]; 10 mg/kg and 30 mg/kg)	Percent reduction vs. vehicle control (blood lymphocytes [1]; 10 mg/kg) [%]	Percent reduction vs. vehicle control (blood lymphocytes [1]; 30 mg/kg) [%]	Relative BAL protein vs. control ([2]; 0.3 mg/kg oral)	Relative BAL protein vs. control ([2]; 1 mg/kg oral)	Relative BAL protein vs. control ([2]; 10 mg/kg oral)	Relative BAL protein vs. control ([2]; 30 mg/kg oral)	Rat Blood Lymphocyte Reduction Assay, Compound Mean (blood lymphocytes [3]; 0.1 mg/kg oral)	Percent reduction vs. control (blood lymphocytes [3]; 0.1 mg/kg oral) [%]	Percent reduction vs. control (blood lymphocytes [3]; 0.1 mg/kg oral, listed as 2-amino-2-[2-(4-octylphenl)pethyl]-1,3-propanediol) [%]	Rat Blood Lymphocyte Reduction Assay, Compound Mean (blood lymphocytes [3]; 0.5 mg/kg oral)	Percent reduction vs. control (blood lymphocytes [3]; 0.5 mg/kg oral) [%]	Percent reduction vs. control (blood lymphocytes [3]; 0.5 mg/kg oral, listed as 2-amino-2-[2-(4-octylphenl)pethyl]-1,3-propanediol) [%]	Rat Blood Lymphocyte Reduction Assay, Compound Mean (blood lymphocytes [3]; 3.0 mg/kg oral)	Percent reduction vs. control (blood lymphocytes [3]; 3.0 mg/kg oral) [%]	Percent reduction vs. control (blood lymphocytes [3]; 3.0 mg/kg oral, listed as 2-amino-2-[2-(4-octylphenl)pethyl]-1,3-propanediol) [%]	Percent reduction vs. vehicle control (blood lymphocytes [1]; 3 mg/kg) [%]	Relative BAL protein vs. control ([2]; 3 mg/kg oral)
CC(=NOCCc1ccccc1)c1ccc(C2CCC(N)(CO)C2)cc1.Cl (centres unmarked) [Example 3, 1-(4-(3-amino-3-(hydroxymethyl)cyclopentyl)phenyl)ethanone O-phenethyl Oxime]	29	62	maximal level of lymphocyte reduction comparable to the reduction shown by FTY	85	85	0.8	0.8	1.2	1.3	–	–	–	–	–	–	–	–	–	–	–
CCCCCCCCc1ccc(CCC(N)(CO)CO)cc1.Cl [FTY, 2-amino-2-[2-(4-octylphenyl)ethyl]-1,3-propanediol, hydrochloride]	–	–	–	–	–	–	–	–	–	2.78	69	69	1.64	82	82	1.02	89	89	87	1.8

— patent US11059784B2, “Oxime ether compounds” (BRISTOL-MYERS SQUIBB COMPANY, priority 2017, dated 2021)
